In publication PMC10819888, “Benzimidazole-Based Derivatives as Apoptotic Antiproliferative Agents: Design, Synthesis, Docking, and Mechanistic Studies” (Molecules, 2024):
Values belong to the compound of their own block, whether it stands above or below them.

Columns and labels:
CCRF-CEM = assay: NCI-60 five-dose assay; format: cell-based, human; details: CCRF-CEM (Leukemia), 48 h; for GI50 / CC50: Homo sapiens; for GI50: read-out: GI50 Conc. per Cell Line; for CC50: read-out: LC50 (the source's name)
A549/ATCC = assay: NCI-60 five-dose assay; format: cell-based, human; details: A549/ATCC (Non-Small Cell Lung Cancer), 48 h; for GI50 / CC50: Homo sapiens; for GI50: read-out: GI50 Conc. per Cell Line; for CC50: read-out: LC50 (the source's name)
EKVX = assay: NCI-60 five-dose assay; format: cell-based, human; details: EKVX (Non-Small Cell Lung Cancer), 48 h; for GI50 / CC50: Homo sapiens; for GI50: read-out: GI50 Conc. per Cell Line; for CC50: read-out: LC50 (the source's name)
NCI-H522 = assay: NCI-60 five-dose assay; format: cell-based, human; details: NCI-H522 (Non-Small Cell Lung Cancer), 48 h; for GI50 / CC50: Homo sapiens; for GI50: read-out: GI50 Conc. per Cell Line; for CC50: read-out: LC50 (the source's name)
COLO 205 = assay: NCI-60 five-dose assay; format: cell-based, human; details: COLO 205 (Colon Cancer), 48 h; for GI50: read-out: GI50 Conc. per Cell Line
HCT-15 = assay: NCI-60 five-dose assay; format: cell-based, human; details: HCT-15 (Colon Cancer), 48 h; for GI50 / CC50: Homo sapiens; for GI50: read-out: GI50 Conc. per Cell Line; for CC50: read-out: LC50 (the source's name)
KM12 = assay: NCI-60 five-dose assay; format: cell-based, human; details: KM12 (Colon Cancer), 48 h; for GI50 / CC50: Homo sapiens; for GI50: read-out: GI50 Conc. per Cell Line; for CC50: read-out: LC50 (the source's name)
LOX IMVI = assay: NCI-60 five-dose assay; format: cell-based, human; details: LOX IMVI (Melanoma), 48 h; for GI50 / CC50: Homo sapiens; for GI50: read-out: GI50 Conc. per Cell Line; for CC50: read-out: LC50 (the source's name)
MALME-3M = assay: NCI-60 five-dose assay; format: cell-based, human; details: MALME-3M (Melanoma), 48 h; for GI50: read-out: GI50 Conc. per Cell Line
SK-MEL-28 = assay: NCI-60 five-dose assay; format: cell-based, human; details: SK-MEL-28 (Melanoma), 48 h; for GI50 / CC50: Homo sapiens; for GI50: read-out: GI50 Conc. per Cell Line; for CC50: read-out: LC50 (the source's name)
UACC-62 = assay: NCI-60 five-dose assay; format: cell-based, human; details: UACC-62 (Melanoma), 48 h; for GI50 / CC50: Homo sapiens; for GI50: read-out: GI50 Conc. per Cell Line; for CC50: read-out: LC50 (the source's name)
IGROV1 = assay: NCI-60 five-dose assay; format: cell-based, human; details: IGROV1 (Ovarian Cancer), 48 h; for GI50 / CC50: Homo sapiens, IGROV-1; for GI50: read-out: GI50 Conc. per Cell Line; for CC50: read-out: LC50 (the source's name)
OVCAR-5 = assay: NCI-60 five-dose assay; format: cell-based, human; details: OVCAR-5 (Ovarian Cancer), 48 h; for GI50 / CC50: Homo sapiens; for GI50: read-out: GI50 Conc. per Cell Line; for CC50: read-out: LC50 (the source's name)
RXF 393 = assay: NCI-60 five-dose assay; format: cell-based, human; details: RXF 393 (Renal Cancer), 48 h; for GI50 / CC50: Homo sapiens; for GI50: read-out: GI50 Conc. per Cell Line; for CC50: read-out: LC50 (the source's name)
MCF7 = assay: NCI-60 five-dose assay; format: cell-based, human; details: MCF7 (Breast Cancer), 48 h; for GI50 / CC50: Homo sapiens; for GI50: read-out: GI50 Conc. per Cell Line; for CC50: read-out: LC50 (the source's name)
T-47D = assay: NCI-60 five-dose assay; format: cell-based, human; details: T-47D (Breast Cancer), 48 h; for GI50 / CC50: Homo sapiens, T47D; for GI50: read-out: GI50 Conc. per Cell Line; for CC50: read-out: LC50 (the source's name)
Melanoma subpanel = assay: NCI-60 five-dose assay, subpanel; format: cell-based, human; details: for GI50: Homo sapiens, Melanoma, average sensitivity of all subpanel cell lines, read-out: GI50 Subpanel MID b; for GI50 Selectivity Ratio (MID a/MID b): Melanoma subpanel
Ovarian Cancer subpanel = assay: NCI-60 five-dose assay, subpanel; format: cell-based, human; details: for GI50: Homo sapiens, Ovarian Cancer, average sensitivity of all subpanel cell lines, read-out: GI50 Subpanel MID b; for GI50 Selectivity Ratio (MID a/MID b): Ovarian Cancer subpanel
BRAF^V600E = assay: biochemical
EGFR = EGFR (Homo sapiens, UniProt P00533); assay: EGFR inhibitory assay
Chain of EGFR (P00533 669-1210): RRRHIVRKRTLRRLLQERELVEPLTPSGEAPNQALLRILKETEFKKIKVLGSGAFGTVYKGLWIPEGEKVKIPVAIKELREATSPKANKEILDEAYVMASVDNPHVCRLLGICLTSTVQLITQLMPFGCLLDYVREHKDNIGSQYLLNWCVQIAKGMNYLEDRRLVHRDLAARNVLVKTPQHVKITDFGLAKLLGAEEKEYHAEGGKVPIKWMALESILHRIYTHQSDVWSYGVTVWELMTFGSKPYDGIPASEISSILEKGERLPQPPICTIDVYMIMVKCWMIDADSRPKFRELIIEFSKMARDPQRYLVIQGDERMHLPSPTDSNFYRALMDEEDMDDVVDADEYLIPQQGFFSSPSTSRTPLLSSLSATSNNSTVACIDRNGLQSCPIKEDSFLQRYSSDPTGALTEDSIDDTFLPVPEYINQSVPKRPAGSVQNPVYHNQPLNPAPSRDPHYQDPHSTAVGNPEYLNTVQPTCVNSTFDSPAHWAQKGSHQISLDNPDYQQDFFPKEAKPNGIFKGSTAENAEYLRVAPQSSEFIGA

Chain of BRAF^V600E (P28028 whole entry V585E): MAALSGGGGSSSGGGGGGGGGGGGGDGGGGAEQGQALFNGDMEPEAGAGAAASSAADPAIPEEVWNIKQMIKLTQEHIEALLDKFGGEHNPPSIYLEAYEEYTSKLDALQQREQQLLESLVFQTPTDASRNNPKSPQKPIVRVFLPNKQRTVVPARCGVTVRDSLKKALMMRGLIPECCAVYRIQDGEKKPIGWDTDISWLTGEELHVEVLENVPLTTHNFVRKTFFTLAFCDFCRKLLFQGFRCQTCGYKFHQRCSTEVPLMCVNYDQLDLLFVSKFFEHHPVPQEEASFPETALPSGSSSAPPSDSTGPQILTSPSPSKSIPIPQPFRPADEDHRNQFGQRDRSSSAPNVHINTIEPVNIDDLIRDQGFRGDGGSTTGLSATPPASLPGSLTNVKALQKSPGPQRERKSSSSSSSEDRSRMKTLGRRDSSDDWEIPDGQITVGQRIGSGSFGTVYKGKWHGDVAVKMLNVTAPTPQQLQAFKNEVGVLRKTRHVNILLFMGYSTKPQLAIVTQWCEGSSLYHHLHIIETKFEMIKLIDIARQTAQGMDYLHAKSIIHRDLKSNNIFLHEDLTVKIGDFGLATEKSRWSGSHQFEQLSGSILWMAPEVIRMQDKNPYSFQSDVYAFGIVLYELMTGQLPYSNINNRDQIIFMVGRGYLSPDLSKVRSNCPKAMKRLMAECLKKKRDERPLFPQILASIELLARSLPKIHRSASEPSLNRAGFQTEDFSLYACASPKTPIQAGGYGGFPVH

SMILES: O=C(NN=Cc1ccc([N+](=O)[O-])cc1)c1ccc2[nH]c(-c3ccc(Cl)cc3)nc2c1 [Compound 4c, N′-(4-Nitrobenzylidene)-2-(4-chlorophenyl)-1H-benzimidazole-5-carbohydrazide]
TGI (CCRF-CEM): 17.70 µM
GI50 (CCRF-CEM): 0.591 µM
CC50 (CCRF-CEM): > 100 µM
TGI (A549/ATCC): 24.10 µM
GI50 (A549/ATCC): 3.98 µM
CC50 (A549/ATCC): > 100 µM
TGI (EKVX): 21.20 µM
GI50 (EKVX): 3.19 µM
CC50 (EKVX): > 100 µM
GI50 (NCI-H522): 3.05 µM
CC50 (NCI-H522): > 100 µM
TGI (NCI-H522): 11.70 µM
TGI (COLO 205): 3.76 µM
GI50 (COLO 205; Homo sapiens): 1.46 µM
TGI (HCT-15): 13.30 µM
GI50 (HCT-15): 2.6 µM
CC50 (HCT-15): > 100 µM
GI50 (KM12): 3.43 µM
CC50 (KM12): 82.6 µM
TGI (KM12): 13.00 µM
GI50 (LOX IMVI): 1.34 µM
CC50 (LOX IMVI): 7.74 µM
TGI (LOX IMVI): 3.22 µM
GI50 (MALME-3M; Homo sapiens): 1.48 µM
TGI (MALME-3M): 5.00 µM
GI50 (SK-MEL-28): 2.6 µM
CC50 (SK-MEL-28): 39 µM
TGI (SK-MEL-28): 10.30 µM
GI50 (UACC-62): 3.51 µM
CC50 (UACC-62): 52.2 µM
TGI (UACC-62): 14.90 µM
GI50 (IGROV1): 3.04 µM
CC50 (IGROV1): 52.4 µM
TGI (IGROV1): 11.40 µM
GI50 (OVCAR-5): 4.43 µM
CC50 (OVCAR-5): > 100 µM
TGI (OVCAR-5): 37.80 µM
GI50 (RXF 393): 2.03 µM
CC50 (RXF 393): 34 µM
TGI (RXF 393): 7.07 µM
GI50 (MCF7): 0.582 µM
CC50 (MCF7): 13.3 µM
TGI (MCF7): 2.85 µM
GI50 (T-47D): 2.29 µM
CC50 (T-47D): > 100 µM
TGI (T-47D): 7.21 µM
GI50 (Melanoma subpanel): 2.87 µM
GI50 Selectivity Ratio (MID a/MID b) (Melanoma subpanel): 1.14
GI50 (Ovarian Cancer subpanel): 5.77 µM
GI50 Selectivity Ratio (MID a/MID b) (Ovarian Cancer subpanel): 0.57
IC50 (BRAF^V600E): 0.31 ± 0.07 µM
IC50 (EGFR): 0.11 ± 0.01 µM

IC50 (EGFR): 0.68 ± 0.05 µM
SMILES: O=C(NN=Cc1ccc(F)cc1)c1ccc2[nH]c(-c3ccc(Cl)cc3)nc2c1 [Compound 4d, N′-(4-Fluorobenzylidene)-2-(4-chlorophenyl)-1H-benzimidazole-5-carbohydrazide]

SMILES: O=C(NN=Cc1ccc(Cl)cc1)c1ccc2[nH]c(-c3ccc(Cl)cc3)nc2c1 [Compound 4e, N′-(4-Chlorobenzylidene)-2-(4-chlorophenyl)-1H-benzimidazole-5-carbohydrazide]
TGI (CCRF-CEM): 9.03 µM
GI50 (CCRF-CEM): 1.43 µM
CC50 (CCRF-CEM): 65.8 µM
TGI (A549/ATCC): 4.53 µM
GI50 (A549/ATCC): 2.16 µM
CC50 (A549/ATCC): 9.52 µM
TGI (EKVX): 3.68 µM
GI50 (EKVX): 1.82 µM
CC50 (EKVX): 7.43 µM
GI50 (NCI-H522): 2.24 µM
CC50 (NCI-H522): 77.9 µM
TGI (NCI-H522): 5.85 µM
TGI (COLO 205): 3.25 µM
GI50 (COLO 205; Homo sapiens): 1.55 µM
CC50 (COLO 205; Homo sapiens, read-out: LC50 (the source's name)): 8.82 µM
TGI (HCT-15): 3.03 µM
GI50 (HCT-15): 1.42 µM
CC50 (HCT-15): 6.46 µM
GI50 (KM12): 2.03 µM
CC50 (KM12): 9.8 µM
TGI (KM12): 4.46 µM
GI50 (LOX IMVI): 1.57 µM
CC50 (LOX IMVI): 5.5 µM
TGI (LOX IMVI): 2.94 µM
LC50 (MALME-3M; Homo sapiens): 6.41 µM
GI50 (MALME-3M; Homo sapiens): 1.55 µM
TGI (MALME-3M): 3.15 µM
GI50 (SK-MEL-28): 1.58 µM
CC50 (SK-MEL-28): 5.86 µM
TGI (SK-MEL-28): 3.04 µM
GI50 (UACC-62): 1.78 µM
CC50 (UACC-62): 6.49 µM
TGI (UACC-62): 3.40 µM
GI50 (IGROV1): 1.5 µM
CC50 (IGROV1): 5.92 µM
TGI (IGROV1): 2.98 µM
GI50 (OVCAR-5): 1.85 µM
CC50 (OVCAR-5): 8.52 µM
TGI (OVCAR-5): 3.97 µM
GI50 (RXF 393): 1.61 µM
CC50 (RXF 393): 6.64 µM
TGI (RXF 393): 3.27 µM
GI50 (MCF7): 1.15 µM
CC50 (MCF7): 5.73 µM
TGI (MCF7): 2.56 µM
GI50 (T-47D): 1.79 µM
CC50 (T-47D): 8.21 µM
TGI (T-47D): 3.83 µM
GI50 (Melanoma subpanel): 1.77 µM
GI50 Selectivity Ratio (MID a/MID b) (Melanoma subpanel): 1.01
GI50 (Ovarian Cancer subpanel): 1.81 µM
GI50 Selectivity Ratio (MID a/MID b) (Ovarian Cancer subpanel): 0.99
IC50 (BRAF^V600E): 0.2 ± 0.02 µM
IC50 (EGFR): 0.09 ± 0.01 µM

IC50 (BRAF^V600E): 0.82 ± 0.06 µM
IC50 (EGFR): 0.56 ± 0.05 µM
SMILES: COc1cc(/C=N/NC(=O)c2ccc3[nH]c(-c4ccc(Cl)cc4)nc3c2)cc(OC)c1OC [Compound 4h, N′-(3,4,5-Trimethoxybenzylidene)-2-(4-chlorophenyl)-1H-benzimidazole-5 carbohydrazide]
